The target in this test is T1, rat P2X4 rT186V mutant (Rattus norvegicus, UniProt P51577, T186V).
T1 construct: rat P2X4 (NP_113782.1; WT and mutants) were transcribed from pGEMHE plasmids; expressed in transfected cells; host or cells: Xenopus laevis oocytes injected with cRNA from pGEMHE
T1 sequence (P51577 1-388 T186V): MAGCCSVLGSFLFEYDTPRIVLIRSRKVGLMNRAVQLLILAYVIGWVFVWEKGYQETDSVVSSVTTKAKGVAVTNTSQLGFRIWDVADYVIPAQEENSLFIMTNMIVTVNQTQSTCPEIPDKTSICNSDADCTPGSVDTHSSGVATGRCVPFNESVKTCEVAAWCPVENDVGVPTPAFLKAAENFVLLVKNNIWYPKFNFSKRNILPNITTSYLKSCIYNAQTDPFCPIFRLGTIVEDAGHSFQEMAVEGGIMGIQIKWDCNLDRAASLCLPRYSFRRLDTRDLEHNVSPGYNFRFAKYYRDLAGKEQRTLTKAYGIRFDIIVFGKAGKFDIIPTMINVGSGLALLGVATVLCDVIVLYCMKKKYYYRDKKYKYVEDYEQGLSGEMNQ
Put plainly: Two-Electrode Voltage Clamp recording, rat P2X4 T186V mutant in Xenopus oocytes. The class given is cell-based. To be noted: 3 mM ATP, 3 mM CTP (Fig. S3). From the text: To further investigate the functional roles of the residues involved in the base recognition, T189 and R143, we performed an electrophysiological analysis with the rat P2X4, since its electrophysiological properties have been well established. We first assessed the functional role of T189 in zfP2X4 and introduced mutations at the equivalent residue of the rat P2X4 to create three mutants (^rT186A, ^rT186V and ^rT186S; the superscript “r” means rat P2X4). […] Therefore, we examined the ^rWT and the ^rT186S mutant.
The cRNAs encoding zebrafish P2X4 (NP_705939; WT) and rat P2X4 (NP_113782.1; WT and mutants) were transcribed from pGEMHE plasmids, using a mMessage mMachine® T7 ULTRA kit (Ambion, Huntingdon, Cambridgeshire, UK). Xenopus laevis oocytes were prepared, and RNA (100 ng for zebrafish P2X4, and 20 ng for rat P2X4) was injected into the oocytes. The oocytes were incubated at 18 °C in Barth’s solution, containing 88 mM NaCl, 1 mM KCl, 2.4 mM NaHCO3, 10 mM HEPES, 0.33 mM Ca(NO3)2, 0.41 mM CaCl2, and 0.82 mM MgSO4, pH 7.4, supplemented with 50 μg/ml gentamicin, and were used for recording after 2–3 days. […] Oocytes were held at −70 mV with a bath-clamp amplifier (OC-725C, Warner Co., USA), and macroscopic currents were recorded and analyzed using the pClamp 10 software (Molecular Devices, USA)[33][34]. We measured n = 4 for zebrafish P2X4 data and n = 7–9 for rat P2X4 data. […]
(In general: In two-electrode clamp one electrode senses voltage and the other passes current.)

Regarding `Nc1ncnc2c1ncn2[C@@H]1O[C@H](COP(=O)(O)OP(=O)(O)OP(=O)(O)O)[C@@H](O)[C@H]1O` [ATP, Adenosine 5-triphosphate], the nucleotide-evoked currents result is “no ATP- and CTP-evoked currents were detected”.
As to `Nc1ccn([C@@H]2O[C@H](COP(=O)(O)OP(=O)(O)OP(=O)(O)O)[C@@H](O)[C@H]2O)c(=O)n1` [CTP], the nucleotide-evoked currents result is “no ATP- and CTP-evoked currents were detected”.

Source of the values: paper PMC5362899, “Structural insights into the nucleotide base specificity of P2X receptors” (Scientific Reports, 2017).
